Results: patent US12139487B2, “Compounds and uses thereof” (Foghorn Therapeutics Inc., priority 2022, dated 2024)

Tests used:
[1] = molecular target: T1, BRM (Homo sapiens, UniProt P51531); test: ATPase catalytic activity assay (ADP-Glo), BRM; format: biochemical; conditions: Table 10; for Ratio (BRG1 IC50 (μM) divided by BRM IC50 (μM)): ATPase assay, selectivity BRG1/BRM; for IC50: ATPase catalytic activity assay (ADP-Glo)
T1 construct: made in house; host or cells: High Five insect cells
Method: (§1) The ATPase catalytic activity of BRM or BRG-1 was measured by an in vitro biochemical assay using ADP-Glo™ (Promega, V9102). The ADP-Glo™ kinase assay is performed in two steps once the reaction is complete. The first step is to deplete any unconsumed ATP in the reaction. The second step is to convert the reaction product ADP to ATP, which will be utilized by the luciferase to generate luminesce and be detected by a luminescence reader, such as Envision.
The assay reaction mixture […] contains 30 nM of BRM or BRG-1, 20 nM salmon sperm DNA (from Invitrogen, UltraPure™ Salmon Sperm DNA Solution, cat #15632011), and 400 μM of ATP in the ATPase assay buffer, which comprises of 20 mM Tris, pH 8, 20 mM MgCl2, 50 mM NaCl, 0.1% Tween-20, and 1 mM fresh DTT (Pierce™ DTT (Dithiothreitol), cat #20290). The reaction is initiated by the addition of the 2.5 μL ATPase solution to 2.5 μL ATP/DNA solution on low volume white Proxiplate-384 plus plate (PerkinElmer, cat #6008280) and incubates at room temperature for 1 hour. Then, following addition of 5 μL of ADP-Glo™ Reagent provided in the kit, the reaction incubates at room temperature for 40 minutes. Then, 10 μL of Kinase Detection Reagent provided in the kit is added to convert ADP to ATP, and the reaction incubates at room temperature for 60 minutes. Finally, luminescence measurement is collected with a plate-reading luminometer, such as Envision.

[2] = molecular target: T2, BRG-1 (Homo sapiens, UniProt P51532); test: ATPase catalytic activity assay (ADP-Glo), BRG-1; format: biochemical; conditions: Table 10, read-out: BRG1 IC50
T2 construct: made in house; host or cells: High Five insect cells
Method: as §1
Then, following addition of 5 μL of ADP-Glo™ Reagent provided in the kit, the reaction incubates at room temperature for 40 minutes. Then, 10 μL of Kinase Detection Reagent provided in the kit is added to convert ADP to ATP, and the reaction incubates at room temperature for 60 minutes. Finally, luminescence measurement is collected with a plate-reading luminometer, such as Envision.

T2 sequence (P51532 whole entry): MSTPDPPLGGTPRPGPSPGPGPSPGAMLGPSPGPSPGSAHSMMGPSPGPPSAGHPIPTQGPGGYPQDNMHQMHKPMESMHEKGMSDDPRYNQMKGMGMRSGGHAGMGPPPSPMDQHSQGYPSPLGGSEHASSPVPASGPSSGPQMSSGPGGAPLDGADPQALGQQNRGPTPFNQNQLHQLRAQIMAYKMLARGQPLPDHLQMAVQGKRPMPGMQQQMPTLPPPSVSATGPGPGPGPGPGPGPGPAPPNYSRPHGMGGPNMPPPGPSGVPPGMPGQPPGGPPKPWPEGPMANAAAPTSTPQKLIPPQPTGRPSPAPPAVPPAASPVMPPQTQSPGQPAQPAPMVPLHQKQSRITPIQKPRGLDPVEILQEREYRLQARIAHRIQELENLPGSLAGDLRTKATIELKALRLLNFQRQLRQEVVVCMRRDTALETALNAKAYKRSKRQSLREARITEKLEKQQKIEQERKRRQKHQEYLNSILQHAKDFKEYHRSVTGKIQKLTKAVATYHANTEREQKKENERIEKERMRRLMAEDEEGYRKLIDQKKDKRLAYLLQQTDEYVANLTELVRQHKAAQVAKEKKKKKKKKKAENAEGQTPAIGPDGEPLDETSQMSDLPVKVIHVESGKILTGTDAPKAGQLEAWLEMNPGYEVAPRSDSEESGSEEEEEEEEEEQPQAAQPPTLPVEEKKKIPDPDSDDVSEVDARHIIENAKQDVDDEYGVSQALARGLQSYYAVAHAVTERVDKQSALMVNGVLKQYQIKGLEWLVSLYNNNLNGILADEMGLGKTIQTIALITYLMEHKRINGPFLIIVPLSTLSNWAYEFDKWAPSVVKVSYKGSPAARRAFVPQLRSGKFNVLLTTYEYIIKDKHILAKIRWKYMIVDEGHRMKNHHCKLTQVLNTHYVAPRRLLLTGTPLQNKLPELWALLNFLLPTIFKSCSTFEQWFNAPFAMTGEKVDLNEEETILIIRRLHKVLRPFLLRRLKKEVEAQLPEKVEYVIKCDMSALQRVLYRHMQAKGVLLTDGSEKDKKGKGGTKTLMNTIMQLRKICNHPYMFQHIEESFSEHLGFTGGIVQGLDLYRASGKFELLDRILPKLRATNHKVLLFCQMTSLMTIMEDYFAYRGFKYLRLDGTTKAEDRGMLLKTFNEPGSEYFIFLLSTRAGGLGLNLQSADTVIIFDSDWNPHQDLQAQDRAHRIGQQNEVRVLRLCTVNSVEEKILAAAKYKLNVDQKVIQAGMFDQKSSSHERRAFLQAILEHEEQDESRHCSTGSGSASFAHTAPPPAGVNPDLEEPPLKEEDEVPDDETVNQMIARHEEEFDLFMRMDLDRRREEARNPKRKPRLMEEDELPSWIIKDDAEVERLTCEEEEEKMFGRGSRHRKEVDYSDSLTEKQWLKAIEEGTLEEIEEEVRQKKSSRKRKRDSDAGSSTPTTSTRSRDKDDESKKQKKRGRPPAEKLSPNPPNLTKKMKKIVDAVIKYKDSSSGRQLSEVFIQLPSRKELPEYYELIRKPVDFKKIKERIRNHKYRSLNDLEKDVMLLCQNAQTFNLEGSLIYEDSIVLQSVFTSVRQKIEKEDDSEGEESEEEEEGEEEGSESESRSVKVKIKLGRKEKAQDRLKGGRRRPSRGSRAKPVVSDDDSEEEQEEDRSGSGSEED
T1 sequence (P51531 whole entry): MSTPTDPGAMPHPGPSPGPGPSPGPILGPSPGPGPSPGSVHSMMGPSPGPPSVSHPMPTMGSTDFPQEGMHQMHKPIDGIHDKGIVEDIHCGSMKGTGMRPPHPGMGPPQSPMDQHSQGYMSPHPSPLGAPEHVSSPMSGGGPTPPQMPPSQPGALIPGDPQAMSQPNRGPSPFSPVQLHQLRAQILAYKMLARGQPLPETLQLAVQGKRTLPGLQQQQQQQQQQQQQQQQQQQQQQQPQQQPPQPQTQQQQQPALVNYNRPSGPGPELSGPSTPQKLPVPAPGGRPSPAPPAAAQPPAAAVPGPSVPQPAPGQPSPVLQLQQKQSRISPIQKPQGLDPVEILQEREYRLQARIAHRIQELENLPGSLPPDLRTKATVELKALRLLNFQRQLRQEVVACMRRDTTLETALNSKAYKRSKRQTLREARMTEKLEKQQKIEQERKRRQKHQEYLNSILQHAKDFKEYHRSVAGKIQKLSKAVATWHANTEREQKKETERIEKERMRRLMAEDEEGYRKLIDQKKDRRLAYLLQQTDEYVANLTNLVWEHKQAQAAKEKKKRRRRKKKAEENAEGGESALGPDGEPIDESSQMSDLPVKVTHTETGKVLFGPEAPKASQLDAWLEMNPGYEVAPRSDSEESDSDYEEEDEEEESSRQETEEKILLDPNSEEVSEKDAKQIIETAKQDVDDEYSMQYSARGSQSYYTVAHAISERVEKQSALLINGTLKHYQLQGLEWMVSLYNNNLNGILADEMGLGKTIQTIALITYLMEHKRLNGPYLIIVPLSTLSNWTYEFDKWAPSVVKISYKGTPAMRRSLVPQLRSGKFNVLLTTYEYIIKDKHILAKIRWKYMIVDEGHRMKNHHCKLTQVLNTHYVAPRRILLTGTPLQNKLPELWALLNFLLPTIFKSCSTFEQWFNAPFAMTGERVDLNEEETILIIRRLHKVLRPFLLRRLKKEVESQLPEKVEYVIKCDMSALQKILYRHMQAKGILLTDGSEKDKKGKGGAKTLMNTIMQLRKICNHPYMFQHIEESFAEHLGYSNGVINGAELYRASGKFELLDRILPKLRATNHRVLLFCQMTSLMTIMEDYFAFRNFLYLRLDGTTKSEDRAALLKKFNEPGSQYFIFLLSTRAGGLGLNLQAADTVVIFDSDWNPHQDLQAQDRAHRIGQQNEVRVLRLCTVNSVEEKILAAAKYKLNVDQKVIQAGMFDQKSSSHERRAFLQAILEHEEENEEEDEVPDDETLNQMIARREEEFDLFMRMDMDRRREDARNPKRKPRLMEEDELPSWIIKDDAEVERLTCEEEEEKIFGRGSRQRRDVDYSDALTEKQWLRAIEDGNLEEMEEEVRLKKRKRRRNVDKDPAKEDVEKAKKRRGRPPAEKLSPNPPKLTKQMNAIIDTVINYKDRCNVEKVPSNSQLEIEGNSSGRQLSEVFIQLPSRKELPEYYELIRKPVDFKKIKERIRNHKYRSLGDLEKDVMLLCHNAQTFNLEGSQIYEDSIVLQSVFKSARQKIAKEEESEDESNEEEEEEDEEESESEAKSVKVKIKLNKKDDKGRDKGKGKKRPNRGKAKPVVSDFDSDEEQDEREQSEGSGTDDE

Ratio (BRG1 IC50 (μM) divided by BRM IC50 (μM)) [1]	IC50 [1] [nM]	IC50 [2] [nM]	SMILES
30.11	10	348	O=C(NCc1cc2nc(-c3cccc(C4CC4)n3)ccc2cn1)c1cc(Cl)c2c(c1)S(=O)(=O)[C@@H](F)COC2 [Compound 302]
12.83	5.6	49.3	C[C@@H]1CCN1c1cnc2c(c1)OCCN2c1ccc2cnc(CNC(=O)c3cc(C(F)F)c4c(c3)S(=O)(=O)[C@@H](F)COC4)cc2n1 [Compound 175]
13.44	2	24.6	O=C(NCc1cc2nc(N3CCOc4ccc(C5CC5)nc43)ccc2cn1)c1ccc2c(c1)S(=O)(=O)[C@@H](F)COC2 [Compound 39]
10.82	5.3	56.7	COc1nc(C(F)F)ccc1-c1ccc2cnc(CNC(=O)c3cc(F)c4c(c3)S(=O)(=O)[C@@H](F)COC4)c(F)c2n1 [Compound 167]
23.22	1.3	30.2	O=C(NCc1cc2cc(N3CCOc4cc(C5CC5)cnc43)ccc2cn1)c1cc(F)c2c(c1)S(=O)(=O)[C@@H](F)COC2 [Compound 9]
9.93	1.6	16.2	C[C@@H]1CN(c2cccc(-c3ccc4cnc(CNC(=O)c5ccc6c(c5)S(=O)(=O)[C@@H](F)CCO6)cc4n3)n2)C[C@H](C)O1 [Compound 22]
9.59	2.8	26.7	O=C(NCc1cc2nc(N3CCOc4cc([C@@H]5CC5(F)F)cnc43)ccc2cn1)c1cc(F)c2c(c1)S(=O)(=O)[C@@H](F)COC2 [Compound 74]
18.99	7.2	153	O=C(NCc1cc2cc(-c3cncc(C4CC4)n3)ccc2cn1)c1cc(F)c2c(c1)S(=O)(=O)[C@@H](F)CCO2 [Compound 230]
27.15	8.3	274	COc1nc([C@@H](C)F)ccc1-c1ccc2cnc(CNC(=O)c3cc(F)c4c(c3)S(=O)(=O)[C@@H](F)CCO4)cc2n1 [Compound 259]
13.92	5	69.5	COc1cnc2c(c1)OCCN2c1ccc2cnc(CNC(=O)c3cc(F)c4c(c3)S(=O)(=O)[C@@H](F)CCO4)cc2c1 [Compound 153]
15.65	10.1	158	O=C(NCc1cc2nc(N3CCOc4cc(F)c(C(F)F)nc43)ccc2cn1)c1cc(F)c2c(c1)S(=O)(=O)[C@@H](F)CCO2 [Compound 304]
23.96	8.1	207	C[C@@H]1CN(c2cccc(-c3ccc4cnc(CNC(=O)c5cc(Br)c6c(c5)S(=O)(=O)[C@@H](F)CCO6)cc4n3)n2)C[C@H](C)O1 [Compound 255]
–	2.5	58.2	[2H]C1([2H])OC([2H])([2H])[C@H](F)S(=O)(=O)c2cc(C(=O)NCc3cc4nc(N5CCOc6cc(N7CC(F)C7)cnc65)ccc4cn3)cc(F)c21 [Compound 56]
14.41	9.1	132	O=C(NCc1cc2nc(N3CCOc4cc(N5CC6CC6C5)cnc43)ccc2cn1)c1cc(F)c2c(c1)S(=O)(=O)[C@@H](F)CCO2 (some centres unmarked) [Compound 276]
16.50	1.6	28.3	Cc1cc(C(=O)NCc2cc3nc(-c4cccc(N5C[C@@H](C)O[C@@H](C)C5)n4)ccc3cn2)cc2c1COC[C@H](F)S2(=O)=O [Compound 21]
16.70	2	38.5	O=C(NCc1cc2nc(N3CCOc4cc(C5CC5)cnc43)ccc2cn1)c1cc(F)c2c(c1)S(=O)(=O)[C@@H](F)CCO2 [Compound 40]
